Assay results taken from ChEMBL document CHEMBL1201862, “PubChem BioAssay data set” (2004).
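Five concentrations, 48 hours, 96-well plates. GI50 is the concentration that inhibits growth by half.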 Calls of active or inactive are those of the source. Cut-off read from the data, not from the text of the source: active = GI50 up to about 1.1 µM and inactive = higher.

Columns and labels:
Assay in all cases: DTP human tumour cell line panel, 48 h
786-0 = tested on: 786-0
A498 = tested on: A498
ACHN = tested on: ACHN
BT-549 = tested on: BT-549
CAKI-1 = tested on: CAKI-1
CCRF-CEM = tested on: CCRF-CEM
COLO 205 = tested on: COLO 205
DU-145 = tested on: DU-145
EKVX = tested on: EKVX
HCC 2998 = tested on: HCC 2998
HCT-116 = tested on: HCT-116
HCT-15 = tested on: HCT-15
HL-60 = tested on: HL-60
HOP-62 = tested on: HOP-62
HOP-92 = tested on: HOP-92
HT-29 = tested on: HT-29
Hs-578T = tested on: Hs-578T
IGROV-1 = tested on: IGROV-1
K562 = tested on: K562
KM12 = tested on: KM12
LOX IMVI = tested on: LOX IMVI
M14 = tested on: M14
MCF7 = tested on: MCF7
MDA-MB-231 = tested on: MDA-MB-231
MDA-MB-435 = tested on: MDA-MB-435
MOLT-4 = tested on: MOLT-4
NCI-H226 = tested on: NCI-H226
NCI-H23 = tested on: NCI-H23
NCI-H460 = tested on: NCI-H460
NCI/ADR-RES = tested on: NCI/ADR-RES
OVCAR-4 = tested on: OVCAR-4
OVCAR-8 = tested on: OVCAR-8
PC-3 = tested on: PC-3
RPMI-8226 = tested on: RPMI-8226
RXF 393 = tested on: RXF 393
SF-268 = tested on: SF-268
SF-295 = tested on: SF-295
SF-539 = tested on: SF-539
SK-MEL-28 = tested on: SK-MEL-28
SK-MEL-2 = tested on: SK-MEL-2
SK-MEL-5 = tested on: SK-MEL-5
SK-OV-3 = tested on: SK-OV-3
SNB-19 = tested on: SNB-19
SNB-75 = tested on: SNB-75
SR = tested on: SR
SW-620 = tested on: SW-620
T47D = tested on: T47D
TK-10 = tested on: TK-10
U-251 = tested on: U-251
UACC-257 = tested on: UACC-257
UACC-62 = tested on: UACC-62
UO-31 = tested on: UO-31
A549 = tested on: A549
Malme-3M = tested on: Malme-3M
NCI-H522 = tested on: NCI-H522
OVCAR-3 = tested on: OVCAR-3
OVCAR-5 = tested on: OVCAR-5
SN12C = tested on: SN12C

For `COc1ccc2c(=O)c3c([nH]c2c1)OCC3=O`, which GI50 (786-0) is on record?
The GI50 was > 100 µM (inactive).

What about the GI50 (A498) of the same compound?
The GI50 was > 100 µM (inactive).

And the GI50 (ACHN)?
Its GI50 is > 100 µM (inactive).

And the GI50 (BT-549)?
Its GI50 is > 100 µM (inactive).

What about the GI50 (CAKI-1) of the same compound?
The GI50 was > 100 µM (inactive).

What about the GI50 (CCRF-CEM) of the same compound?
Its GI50 is > 100 µM (inactive).

What about the GI50 (COLO 205) of the same compound?
The GI50 was > 100 µM (inactive).

What about the GI50 (DU-145) of the same compound?
Its GI50 is > 100 µM (inactive).

And the GI50 (EKVX)?
Its GI50 is > 100 µM (inactive).

What about the GI50 (HCC 2998) of the same compound?
Its GI50 is > 100 µM (inactive).

And the GI50 (HCT-116)?
The GI50 was > 100 µM (inactive).

And the GI50 (HCT-15)?
Its GI50 is greater than 100 µM.

And the GI50 (HL-60)?
The GI50 was > 100 µM (inactive).

And the GI50 (HOP-62)?
The GI50 was > 100 µM (inactive).

What about the GI50 (HOP-92) of the same compound?
The GI50 was > 100 µM (inactive).

What about the GI50 (HT-29) of the same compound?
The GI50 was > 100 µM (inactive).

What about the GI50 (Hs-578T) of the same compound?
The GI50 was > 100 µM (inactive).

What about the GI50 (IGROV-1) of the same compound?
Its GI50 is > 100 µM (inactive).

And the GI50 (K562)?
Its GI50 is 36.5 µM (inactive).

And the GI50 (KM12)?
The GI50 was > 100 µM (inactive).

And the GI50 (LOX IMVI)?
Its GI50 is > 100 µM (inactive).

What about the GI50 (M14) of the same compound?
Its GI50 is > 100 µM (inactive).

What about the GI50 (MCF7) of the same compound?
The GI50 was > 100 µM (inactive).

And the GI50 (MDA-MB-231)?
Its GI50 is > 100 µM (inactive).

And the GI50 (MDA-MB-435)?
The GI50 was > 100 µM (inactive).

And the GI50 (MOLT-4)?
The GI50 was > 100 µM (inactive).

And the GI50 (NCI-H226)?
Its GI50 is > 100 µM (inactive).

And the GI50 (NCI-H23)?
Its GI50 is > 100 µM (inactive).

What about the GI50 (NCI-H460) of the same compound?
The GI50 was > 100 µM (inactive).

And the GI50 (NCI/ADR-RES)?
The GI50 was > 100 µM (inactive).

And the GI50 (OVCAR-4)?
Its GI50 is > 100 µM (inactive).

What about the GI50 (OVCAR-8) of the same compound?
The GI50 was > 100 µM (inactive).

What about the GI50 (PC-3) of the same compound?
Its GI50 is > 100 µM (inactive).

And the GI50 (RPMI-8226)?
Its GI50 is > 100 µM (inactive).

What about the GI50 (RXF 393) of the same compound?
The GI50 was > 100 µM (inactive).

And the GI50 (SF-268)?
The GI50 was > 100 µM (inactive).

And the GI50 (SF-295)?
The GI50 was > 100 µM (inactive).

And the GI50 (SF-539)?
The GI50 was > 100 µM (inactive).

What about the GI50 (SK-MEL-28) of the same compound?
The GI50 was > 100 µM (inactive).

And the GI50 (SK-MEL-2)?
The GI50 was > 100 µM (inactive).

And the GI50 (SK-MEL-5)?
Its GI50 is > 100 µM (inactive).

What about the GI50 (SK-OV-3) of the same compound?
Its GI50 is > 100 µM (inactive).

And the GI50 (SNB-19)?
The GI50 was > 100 µM (inactive).

And the GI50 (SNB-75)?
Its GI50 is > 100 µM (inactive).

And the GI50 (SR)?
Its GI50 is > 100 µM (inactive).

What about the GI50 (SW-620) of the same compound?
Its GI50 is > 100 µM (inactive).

And the GI50 (T47D)?
The GI50 was > 100 µM (inactive).

And the GI50 (TK-10)?
Its GI50 is > 100 µM (inactive).

And the GI50 (U-251)?
The GI50 was > 100 µM (inactive).

And the GI50 (UACC-257)?
The GI50 was > 100 µM (inactive).

And the GI50 (UACC-62)?
The GI50 was > 100 µM (inactive).

What about the GI50 (UO-31) of the same compound?
Its GI50 is > 100 µM (inactive).

For `CCCCc1ccc(Nc2nc(SC)c3[nH]cnc3n2)cc1`, which GI50 (786-0) is on record?
Its GI50 is 16.4 µM (inactive).

What about the GI50 (A498) of the same compound?
Its GI50 is 18.7 µM (inactive).

And the GI50 (A549)?
The GI50 was > 100 µM (inactive).

What about the GI50 (ACHN) of the same compound?
The GI50 was 12.7 µM (inactive).

And the GI50 (BT-549)?
The GI50 was > 100 µM (inactive).

What about the GI50 (CAKI-1) of the same compound?
Its GI50 is 16.9 µM (inactive).

And the GI50 (CCRF-CEM)?
Its GI50 is 6.19 µM (inactive).

And the GI50 (COLO 205)?
The GI50 was > 91.2 µM (inactive).

What about the GI50 (DU-145) of the same compound?
The GI50 was > 100 µM (inactive).

What about the GI50 (EKVX) of the same compound?
Its GI50 is 24.9 µM (inactive).

And the GI50 (HCC 2998)?
The GI50 was > 80.4 µM (inactive).

And the GI50 (HCT-116)?
The GI50 was 23.6 µM (inactive).

And the GI50 (HCT-15)?
The GI50 was greater than 32.9 µM.

What about the GI50 (HL-60) of the same compound?
Its GI50 is 3.43 µM (inactive).

And the GI50 (HOP-62)?
Its GI50 is 10.2 µM (inactive).

What about the GI50 (HOP-92) of the same compound?
The GI50 was 15.5 µM (inactive).

And the GI50 (HT-29)?
The GI50 was 15.8 µM (inactive).

What about the GI50 (Hs-578T) of the same compound?
Its GI50 is 43 µM (inactive).

What about the GI50 (IGROV-1) of the same compound?
The GI50 was 24.7 µM (inactive).

And the GI50 (K562)?
Its GI50 is 3.61 µM (inactive).

And the GI50 (KM12)?
The GI50 was 17.9 µM (inactive).

And the GI50 (LOX IMVI)?
The GI50 was > 46.6 µM (inactive).

And the GI50 (M14)?
Its GI50 is > 100 µM (inactive).

And the GI50 (MCF7)?
The GI50 was > 24.4 µM (inactive).

What about the GI50 (MDA-MB-231) of the same compound?
The GI50 was 84.3 µM (inactive).

And the GI50 (MDA-MB-435)?
Its GI50 is 5.33 µM (inactive).

What about the GI50 (MOLT-4) of the same compound?
The GI50 was 2.81 µM (inactive).

And the GI50 (Malme-3M)?
Its GI50 is > 100 µM (inactive).

And the GI50 (NCI-H226)?
Its GI50 is > 73.6 µM (inactive).

And the GI50 (NCI-H23)?
Its GI50 is 28.6 µM (inactive).

And the GI50 (NCI-H460)?
Its GI50 is 13.9 µM (inactive).

What about the GI50 (NCI-H522) of the same compound?
The GI50 was 20.6 µM (inactive).

And the GI50 (NCI/ADR-RES)?
The GI50 was 23.6 µM (inactive).

And the GI50 (OVCAR-3)?
The GI50 was > 55 µM (inactive).

And the GI50 (OVCAR-4)?
The GI50 was > 100 µM (inactive).

And the GI50 (OVCAR-5)?
Its GI50 is > 100 µM (inactive).

What about the GI50 (OVCAR-8) of the same compound?
The GI50 was 30.2 µM (inactive).

What about the GI50 (PC-3) of the same compound?
The GI50 was > 100 µM (inactive).

What about the GI50 (RPMI-8226) of the same compound?
Its GI50 is > 56 µM (inactive).

And the GI50 (RXF 393)?
The GI50 was 28.2 µM (inactive).

And the GI50 (SF-268)?
Its GI50 is 65.5 µM (inactive).

What about the GI50 (SF-295) of the same compound?
Its GI50 is > 47.9 µM (inactive).

What about the GI50 (SF-539) of the same compound?
The GI50 was 36.6 µM (inactive).

What about the GI50 (SK-MEL-28) of the same compound?
The GI50 was > 100 µM (inactive).

And the GI50 (SK-MEL-2)?
The GI50 was > 38.5 µM (inactive).

What about the GI50 (SK-MEL-5) of the same compound?
Its GI50 is 17.7 µM (inactive).

And the GI50 (SK-OV-3)?
The GI50 was > 43.5 µM (inactive).

What about the GI50 (SN12C) of the same compound?
The GI50 was > 84.9 µM (inactive).

And the GI50 (SNB-19)?
Its GI50 is 36.6 µM (inactive).

And the GI50 (SNB-75)?
The GI50 was > 100 µM (inactive).

What about the GI50 (SR) of the same compound?
Its GI50 is 2.01 µM (inactive).

What about the GI50 (SW-620) of the same compound?
Its GI50 is 24.5 µM (inactive).

And the GI50 (T47D)?
The GI50 was > 100 µM (inactive).

And the GI50 (TK-10)?
The GI50 was 45.2 µM (inactive).

What about the GI50 (U-251) of the same compound?
The GI50 was 26.2 µM (inactive).

What about the GI50 (UACC-257) of the same compound?
Its GI50 is > 100 µM (inactive).

And the GI50 (UACC-62)?
The GI50 was 45.5 µM (inactive).

And the GI50 (UO-31)?
The GI50 was > 78.2 µM (inactive).
